Target: Mitogen-activated protein kinase 14 (Homo sapiens) (UniProt Q16539)
Assay: Inhibition of p38alpha

Chain of Mitogen-activated protein kinase 14 (Homo sapiens) (Q16539 whole entry, looked up): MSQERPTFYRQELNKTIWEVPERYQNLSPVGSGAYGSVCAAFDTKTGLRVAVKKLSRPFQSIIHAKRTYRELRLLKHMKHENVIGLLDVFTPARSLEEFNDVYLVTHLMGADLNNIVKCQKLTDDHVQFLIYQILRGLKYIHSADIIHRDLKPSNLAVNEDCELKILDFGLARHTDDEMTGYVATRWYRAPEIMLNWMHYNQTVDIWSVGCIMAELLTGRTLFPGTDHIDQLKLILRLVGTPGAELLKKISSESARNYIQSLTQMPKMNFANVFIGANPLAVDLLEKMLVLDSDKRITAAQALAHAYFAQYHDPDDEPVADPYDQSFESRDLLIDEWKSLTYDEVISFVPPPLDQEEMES

| SMILES | IC50 [µM] |
| --- | --- |
| COC(C)(C)c1nnc2cc(-c3cc(C(=O)NC4CC4)cc(F)c3C)ccn12 | 0.0094 |
| Cc1ccc(C(=O)NC2CC2)cc1-c1ccc2c(N3CCCCC3)noc2c1 | 0.014 |
| Cc1c(F)cc(C(=O)NC2CC2)cc1-c1ccn2c(C(C)(C)N)nnc2c1 | 0.0154 |
| Cc1c(F)cc(C(=O)NC2CC2)cc1-c1ccn2c(C(C)(C)O)nnc2c1 | 0.0031 |
| Cc1ccc(C(=O)NC2CC2)cc1-c1ccn2c(-c3ccccc3Cl)nnc2c1 | 0.0063 |
| Cc1c(F)cc(C(=O)NC2CC2)cc1-c1ccn2c(C3CC3)nnc2c1 | 0.0067 |
| Cc1c(F)cc(C(=O)NC2CC2)cc1-c1ccn2c(C(C)(C)N(C)C)nnc2c1 | 0.0017 |
| CC(=O)NC(C)(C)c1nnc2cc(-c3cc(C(=O)NC4CC4)cc(F)c3C)ccn12 | 0.253 |
| Cc1ccc(C(=O)NC2CC2)cc1-c1ccn2c(C(C)C)nnc2c1 | 0.027 |
| Cc1c(F)cc(C(=O)NC2CC2)cc1-c1c(F)cn2c(C(C)(C)N(C)C)nnc2c1F | 0.015 |
| Cc1c(F)cc(C(=O)NC2CC2)cc1-c1c(F)cn2c(C(C)C)nnc2c1F | 0.0067 |
| Cc1c(F)cc(C(=O)NC2CC2)cc1-c1ccn2c(-c3ccncc3Cl)nnc2c1 | 0.00083 |
| Cc1c(F)cc(C(=O)NC2CC2)cc1-c1ccn2c(C(N)=O)nnc2c1 | 0.102 |
| Cc1c(F)cc(C(=O)NC2CC2)cc1-c1c(F)cn2c(C(C)(C)C)nnc2c1F | 0.0062 |
| Cc1c(F)cc(C(=O)NC2CC2)cc1-c1ccn2c(C(F)(F)F)nnc2c1 | 0.085 |
| Cc1c(F)cc(C(=O)NC2CC2)cc1-c1ccn2c(C(C)(C)NS(C)(=O)=O)nnc2c1 | 0.017 |
| COC(C)c1nnc2cc(-c3cc(C(=O)NC4CC4)cc(F)c3C)ccn12 (stereo not given) | 0.018 |
| Cc1ccc(C(=O)NC2CC2)cc1-c1ccn2c(C3(C)CC3)nnc2c1 | 0.012 |

| SMILES | IC50 [µM] |
| --- | --- |
| Cc1c(F)cc(C(=O)NC2CC2)cc1-c1c(F)cn2c(C(C)(C)N)nnc2c1F | 0.012 |
| Cc1c(F)cc(C(=O)NC2CC2)cc1-c1ccn2c(C3CCC3)nnc2c1 | 0.0019 |
| Cc1ccc(C(=O)NC2CC2)cc1-c1c(F)cn2c(C(C)(C)C)nnc2c1F | 0.049 |
| Cc1c(F)cc(C(=O)NC2CC2)cc1-c1ccn2c(C(C)C)nnc2c1 | 0.003 |
| Cc1ccc(C(=O)NC2CC2)cc1-c1ccn2c(C(C)(C)C)nnc2c1 | 0.016 |
| Cc1c(F)cc(C(=O)NC2CC2)cc1-c1c(F)cn2c(-c3ccncc3Cl)nnc2c1F | 0.023 |
| Cc1c(F)cc(C(=O)NC2CC2)cc1-c1c(F)cn2c(C3CC3)nnc2c1F | 0.01 |
| CC(C)(C)c1nnc2ccc(Sc3ccc(F)cc3F)cn12 | 0.062 |
| Cc1c(F)cc(C(=O)NC2CC2)cc1-c1ccn2c(-c3ccccc3Cl)nnc2c1 | 0.0016 |
| Cc1ccc(C(=O)NC2CC2)cc1-c1ccn2c(C3CCC3)nnc2c1 | 0.02 |
| Cc1c(F)cc(C(=O)NC2CC2)cc1-c1ccn2c(C3(C)CC3)nnc2c1 | 0.00064 |
| Cc1ccc(C(=O)NC2CC2)cc1-c1ccn2c(-c3ccncc3Cl)nnc2c1 | 0.038 |
| Cc1ccc(C(=O)NC2CC2)cc1-c1ccn2c(C3CCOCC3)nnc2c1 | 0.056 |
| Cc1c(F)cc(C(=O)NC2CC2)cc1-c1ccn2c(C3CCOCC3)nnc2c1 | 0.03 |
| COC(C)c1nnc2cc(-c3cc(C(=O)NC4CC4)ccc3C)ccn12 (stereo not given) | 0.043 |
| Cc1c(F)cc(C(=O)NC2CC2)cc1-c1ccn2c(C(C)(C)C)nnc2c1 | 0.002 |
| Cc1ccc(C(=O)NC2CC2)cc1-c1ccn2c(C(F)(F)F)nnc2c1 | 0.853 |
